Data from patent publication US12077503B2, “Substituted cyclic amides and their use as herbicides” (FMC CORPORATION, priority 2015, dated 2024).

What was measured:
Assay type in all cases: in vivo
[1] = system: barnyardgrass (Echinochloa crus-galli); assay: Test A preemergence; conditions: Echinochloa crus-galli, pre-emergence, 240 h, preemergence, 0 to 100 scale where 0 is no effect and 100 is complete control, read-out: Barnyardgrass plant response rating
Method in brief: (§1)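 In a loam soil and sand blend, planted seeds got a preemergence directed soil spray, and young plants at the one- to two-leaf stage, 2–10 cm high, got a postemergence application; ~10 d greenhouse hold; injury rated visually, 0 = none, 100 = complete control.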

[2] = system: ragweed (common ragweed, Ambrosia elatior); assay: Test A preemergence; conditions: Ambrosia artemisiifolia, pre-emergence, 240 h, preemergence, 0 to 100 scale where 0 is no effect and 100 is complete control, read-out: Ragweed plant response rating
Method in brief: as §1

[3] = system: pigweed (Amaranthus retroflexus); assay: Test A preemergence; conditions: Amaranthus retroflexus, pre-emergence, 240 h, preemergence, 0 to 100 scale where 0 is no effect and 100 is complete control, read-out: Pigweed plant response rating
[4] = system: ryegrass, Italian (Italian ryegrass, Lolium multiflorum); assay: Test A preemergence; conditions: Lolium multiflorum, pre-emergence, 240 h, preemergence, 0 to 100 scale where 0 is no effect and 100 is complete control, read-out: Ryegrass, Italian plant response rating
Method in brief: as §1

[5] = system: giant foxtail (Setaria faberii); assay: Test A preemergence; conditions: Setaria faberi, pre-emergence, 240 h, preemergence, 0 to 100 scale where 0 is no effect and 100 is complete control, read-out: Foxtail, Giant plant response rating
Method in brief: as §1

Kochia (Kochia scoparia) = assay: Test A preemergence; conditions: Bassia scoparia, pre-emergence, 240 h, preemergence, 0 to 100 scale where 0 is no effect and 100 is complete control, read-out: Kochia plant response rating
Method in brief: as §1

[6] = system: Galium (catchweed bedstraw, Galium aparine); assay: Test A postemergence; conditions: Galium, post-emergence, 240 h, postemergence
Method in brief: as §1

[7] = system: barnyardgrass (Echinochloa crus-galli); assay: Test A postemergence; conditions: Echinochloa crus-galli, post-emergence, 240 h, postemergence
Method in brief: as §1

corn (Zea mays) = assay: Test A postemergence; conditions: Zea mays, post-emergence, 240 h, postemergence
Method in brief: as §1

[8] = system: ragweed (common ragweed, Ambrosia elatior); assay: Test A postemergence; conditions: Ambrosia artemisiifolia, post-emergence, 240 h, postemergence
Method in brief: as §1

[9] = system: pigweed (Amaranthus retroflexus); assay: Test A postemergence; conditions: Amaranthus retroflexus, post-emergence, 240 h, postemergence
Method in brief: as §1

[10] = system: ryegrass, Italian (Italian ryegrass, Lolium multiflorum); assay: Test A postemergence; conditions: Lolium multiflorum, post-emergence, 240 h, postemergence
Method in brief: as §1

[11] = system: blackgrass (Alopecurus myosuroides); assay: Test A postemergence; conditions: Alopecurus myosuroides, post-emergence, 240 h, postemergence
Method in brief: as §1

[12] = system: wheat (Triticum aestivum); assay: Test A postemergence; conditions: Triticum aestivum, post-emergence, 240 h, postemergence
Method in brief: as §1

[13] = system: giant foxtail (Setaria faberii); assay: Test A postemergence; conditions: Setaria faberi, post-emergence, 240 h, postemergence
Method in brief: as §1

O=C1NC[C@H](c2nccs2)[C@H]1C(=O)Nc1cccc(F)c1F [Compound 1182]
0%: pest or weed control at 125 g/ha ([1]; 125 g ai/ha, approx. 10 d) | pest or weed control at 500 g/ha ([1]; 500 g ai/ha) | pest or weed control at 125 g/ha ([2]; 125 g ai/ha, approx. 10 d) | pest or weed control at 500 g/ha ([2]; 500 g ai/ha) | pest or weed control at 125 g/ha ([3]; 125 g ai/ha, approx. 10 d) | pest or weed control at 500 g/ha ([3]; 500 g ai/ha) | pest or weed control at 125 g/ha ([4]; 125 g ai/ha, approx. 10 d) | pest or weed control at 500 g/ha ([4]; 500 g ai/ha) | pest or weed control at 125 g/ha ([5]; 125 g ai/ha, approx. 10 d) | pest or weed control at 500 g/ha ([5]; 500 g ai/ha) | pest or weed control at 125 g/ha (Kochia (Kochia scoparia); 125 g ai/ha, approx. 10 d) | pest or weed control at 500 g/ha (Kochia (Kochia scoparia); 500 g ai/ha) | pest or weed control at 125 g/ha ([6]; 125 g ai/ha, visual injury vs untreated controls after approx. 10 d, 0 = no effect, 100 = complete control, read-out: Galium plant response rating (0 to 100 scale)) | pest or weed control at 500 g/ha ([6]; 500 g ai/ha, 0 to 100 scale, 0 is no effect, 100 is complete control, read-out: Galium plant response rating) | pest or weed control at 125 g/ha ([7]; 125 g ai/ha, visual injury vs untreated controls after approx. 10 d, 0 = no effect, 100 = complete control, read-out: Barnyardgrass plant response rating (0 to 100 scale)) | pest or weed control at 500 g/ha ([7]; 500 g ai/ha, 0 to 100 scale, 0 is no effect, 100 is complete control, read-out: Barnyardgrass plant response rating) | plant injury at 125 g/ha (corn (Zea mays); 125 g ai/ha, visual injury vs untreated controls after approx. 10 d, 0 = no effect, 100 = complete control, read-out: Corn plant response rating (0 to 100 scale)) | plant injury at 500 g/ha (corn (Zea mays); 500 g ai/ha, 0 to 100 scale, 0 is no effect, 100 is complete control, read-out: Corn plant response rating) | pest or weed control at 125 g/ha ([8]; 125 g ai/ha, visual injury vs untreated controls after approx. 10 d, 0 = no effect, 100 = complete control, read-out: Ragweed plant response rating (0 to 100 scale)) | pest or weed control at 500 g/ha ([8]; 500 g ai/ha, 0 to 100 scale, 0 is no effect, 100 is complete control, read-out: Ragweed plant response rating) | pest or weed control at 125 g/ha ([9]; 125 g ai/ha, visual injury vs untreated controls after approx. 10 d, 0 = no effect, 100 = complete control, read-out: Pigweed plant response rating (0 to 100 scale)) | pest or weed control at 500 g/ha ([9]; 500 g ai/ha, 0 to 100 scale, 0 is no effect, 100 is complete control, read-out: Pigweed plant response rating) | pest or weed control at 125 g/ha ([10]; 125 g ai/ha, visual injury vs untreated controls after approx. 10 d, 0 = no effect, 100 = complete control, read-out: Ryegrass, Italian plant response rating (0 to 100 scale)) | pest or weed control at 500 g/ha ([10]; 500 g ai/ha, 0 to 100 scale, 0 is no effect, 100 is complete control, read-out: Ryegrass, Italian plant response rating) | pest or weed control at 125 g/ha ([11]; 125 g ai/ha, visual injury vs untreated controls after approx. 10 d, 0 = no effect, 100 = complete control, read-out: Blackgrass plant response rating (0 to 100 scale)) | pest or weed control at 500 g/ha ([11]; 500 g ai/ha, 0 to 100 scale, 0 is no effect, 100 is complete control, read-out: Blackgrass plant response rating) | plant injury at 125 g/ha ([12]; 125 g ai/ha, visual injury vs untreated controls after approx. 10 d, 0 = no effect, 100 = complete control, read-out: Wheat plant response rating (0 to 100 scale)) | plant injury at 500 g/ha ([12]; 500 g ai/ha, 0 to 100 scale, 0 is no effect, 100 is complete control, read-out: Wheat plant response rating) | pest or weed control at 125 g/ha ([13]; 125 g ai/ha, visual injury vs untreated controls after approx. 10 d, 0 = no effect, 100 = complete control, read-out: Foxtail, Giant plant response rating (0 to 100 scale)) | pest or weed control at 500 g/ha ([13]; 500 g ai/ha, 0 to 100 scale, 0 is no effect, 100 is complete control, read-out: Foxtail, Giant plant response rating)
